{"source": "paper PMC5554167", "about": "“Intestinal transepithelial permeability of oxytocin into the blood is dependent on the receptor for advanced glycation end products in mice” (Scientific Reports, 2017)", "key": {"[1]": {"settings": "adult humans, cited from earlier work", "protocol": "An estimation of bioavailability was performed in adult mice. Fifty ng/mL of OT was detected after oral delivery of 10 μg of OT. Young adults weigh approximately 30 g and have 2.3 mL blood, so approximately 1% of oral OT can be absorbed. We have previously identified OT in the mammary tissues of mouse dams and in the milk curd inside the oesophagi of pups[13]. To determine the OT concentrations in milk, we needed to collect milk from the mothers. One common method is to collect milk after stimulating secretion with external OT. Because such milk contains external OT, we were unable to calculat ..."}, "[2]": {"assay": "LC-MS/MS of [Ile13C,15N]OT in plasma after oral administration to pups", "format": "in vivo, mice", "protocol": "Plasma samples were collected from the heart of anesthetized wild-type PND3 pups at 10 min after oral administration of [Ile ^13C, ^15N]OT (100 µM × 10 μL). The samples were fractionated with 1 N salt, and subjected to LC-MS/MS after sample preparation by the deproteination procedure. Figure 7 illustrates two representative traces of multiple reaction monitoring (MRM) chromatograms ([M + H^+] (m/z 1014.6) → b6 ion (m/z 730.6) for the administered [Ile ^13C, ^15N]OT; [M + H^+] (m/z 1021.2) → b6 ion (m/z 723.2) for the internal STD [Pro&Leu^13C, ^15N]OT)[47]. The left MRM chromatogram indicates the presence of full-length stably labelled [Ile ^13C, ^15N]OT in the blood owing to intestinal absorption after oral administration in suckling (PND3) pups (n = 4). The right MRM chromatogram of Fig. 7 corresponds to the internal STD [Pro&Leu^13C, ^15N]OT spiked into the plasma.\nStandard (STD) samples of [Ile^13C, ^15N]OT (100 ng/mL) and [Pro&Leu^13C, ^15N]OT (100 ng/mL) were prepared by dilution of stock solutions with 0.1% TFA as necessary. […]\nAn AB Sciex 4000 QTRAP (CA, USA) was used. The prepared 25 μL sample was injected and separated by a ZORBAX 300SB-C8 column (2.1 × 150 mm, 5 μm; CA, USA) and then detected using the multiple reaction monitoring (MRM) mode of the MS/MS system. […]"}, "[3]": {"assay": "Plasma AVP after oral delivery of AVP in pups (EIA)", "format": "in vivo, mice", "settings": "for AVP recovery: rough estimate", "protocol": "To study the specificity of RAGE-dependent transport of OT, we investigated the intestinal absorption of another nonapeptide, arginine vasopressin (AVP[46]) by oral delivery and in the isolated intestines. Transport during the suckling period of development (PND3 and PND5) was confirmed by comparing plasma AVP levels at 10 min after oral delivery of 10 μL of synthetic AVP solution (100 μM; 1 μg/pup) or the same volume of PBS to pups after fasting for 30 min. Plasma AVP concentrations were markedly higher at both PND3 and PND5 in pups administered AVP than in those administered oral saline (Fig. 6a). Two-way ANOVA was used to analyse the interaction between Treatment (PBS/AVP) × Age, F 1,18 = 3.14, P = 0.0933; the Treatment (PBS/AVP) effect, F 1,18 = 5.21, P < 0.05; and the Age effect, F 1,18 = 91.26, P < 0.0001. Bonferroni’s post hoc tests were used to determine differences in AVP levels between PND3 and PND5, *P < 0.05. It is worth noting that the pup size denominator problem was also present in the above experiment. However, if we roughly estimate AVP recovery, it is approximately 4% at PND3 (22 ng was recovered from the effective dose of 555 ng (1 μg/1.8 g pup)) and also 4% at PND5 (16 ng was recovered from the effective dose of 400 ng (1 μg/2.5 g pup)).\nApproximately 30 μL of blood was collected from the facial vein of neonates after quick cold anesthesia on ice (Fig. 1a; ref. [67], [68]). The similar blood volume was obtained from the heart after opening of the chest of pups (Figs 1b–d, 3a,b, 6a and 7), from the carotid artery in the pup neck (Fig. 2a) and the tail vein of adults each time (Fig. 6) under ketamine anaesthesia ([…] intraperitoneally).\nOT or AVP immunoreactivity levels were quantified by using OT and AVP enzyme immunoassay (EIA) kits (Enzo Life Sciences, NY, USA), respectively. We performed assays in tissue preparations without pre-treatment[66], [70] to compare different tissue samples, though the fractioned sample was recommended, [72]. Blood samples collected as mentioned above were stored at −80 C. The blood samples were thawed and five μL of them were diluted 1:20 in assay buffer on ice and assayed."}}, "note": "Like-named read-outs stand apart in the source and are kept apart here."}
{"molecule": "CC[C@H](C)[C@@H]1NC(=O)[C@H](Cc2ccc(O)cc2)NC(=O)[C@@H](N)CSSC[C@@H](C(=O)N2CCC[C@H]2C(=O)N[C@@H](CC(C)C)C(=O)NCC(N)=O)NC(=O)[C@H](CC(N)=O)NC(=O)[C@H](CCC(N)=O)NC1=O", "values": [{"measurement": "OT detected in plasma after oral delivery", "result": 50, "unit": "ng/mL"}]}
{"molecule": "1-deamino-8-arginine vasopressin", "values": [{"measurement": "Bioavailability", "setting": "[1]; intranasal", "result": 3.4, "unit": "%"}, {"measurement": "Bioavailability", "setting": "[1]; intrarectal", "result": 0, "unit": "%"}, {"measurement": "Bioavailability", "setting": "[1]; oral", "result": 0.1, "unit": "%"}, {"measurement": "Bioavailability", "setting": "[1]; sublingual", "result": 0, "unit": "%"}]}
{"molecule": "CC[C@H](C)[C@@H]1NC(=O)[C@H](Cc2ccc(O)cc2)NC(=O)[C@@H](N)CSSC[C@@H](C(=O)N2CCC[C@H]2C(=O)N[C@@H](CC(C)C)C(=O)NCC(N)=O)NC(=O)[C@H](CC(N)=O)NC(=O)[C@H](CCC(N)=O)NC1=O", "note": "[[Ile ^13C, ^15N]OT, isoleucine [Ile ^13C, ^15N] oxytocin]", "values": [{"measurement": "level at 10 min", "setting": "[2]; mouse, in vivo, 1000 ng, wild-type PND3 pups 10 min after oral 100 µM × 10 μL, LC-MS/MS, corrected for dilution x10, n = 4, read-out: Estimated mean concentration in the blood", "result": "346 ± 96", "unit": "ng/mL"}, {"measurement": "Concentration calculated from ratio of peak areas (10-fold diluted sample)", "setting": "[2]; wild-type PND3 pup plasma 10 min after oral 100 µM × 10 μL, LC-MS/MS MRM, sample of Fig. 7, before correction for dilution", "result": 27.9, "unit": "ng/mL"}]}
{"molecule": "arginine vasopressin [AVP]", "values": [{"measurement": "AVP recovered", "setting": "[3]; wild-type pups PND3, 10 min after oral AVP 1 μg/pup, effective dose 555 ng", "result": 22, "unit": "ng"}, {"measurement": "AVP recovery", "setting": "[3]; wild-type pups PND3, 10 min after oral AVP 1 μg/pup, effective dose 555 ng (1 μg/1.8 g pup)", "result": "approximately 4%"}, {"measurement": "AVP recovered", "setting": "[3]; wild-type pups PND5, 10 min after oral AVP 1 μg/pup, effective dose 400 ng", "result": 16, "unit": "ng"}, {"measurement": "AVP recovery", "setting": "[3]; wild-type pups PND5, 10 min after oral AVP 1 μg/pup, effective dose 400 ng (1 μg/2.5 g pup)", "result": "approximately 4%"}]}
